Laboratory results from paper PMC12410356 (International Journal for Parasitology: Drugs and Drug …, 2025).

What was measured:
[1] = system: E. multilocularis metacestode vesicles; assay: Phosphoglucose isomerase (PGI) release assay (damage-marker release) on metacestode vesicles; format: cell-based, Echinococcus multilocularis; settings: 10 μM; for PGI d5 (relative PGI release): 5 days; for PGI d12 (relative PGI release): 12 days
Procedure: In order to quantify the drug-induced damage on whole metacestode vesicles, phosphoglucose isomerase (PGI) assay was performed as described previously ([Stadelmann et al., 2010]) with few adaptations published recently ([Kaethner et al., 2023]). In short, 8 to 12 weeks-old metacestode vesicles were purified using 2 % sucrose with subsequent washes in PBS. Metacestode vesicles were diluted in two volumes of DMEM without phenol red containing penicillin (100 U/mL) and streptomycin (100 μg/mL). […] 0.1 % DMSO was used as a negative solvent control and 0.1 % Triton X-100 was used as a positive total damage control. Metacestode vesicles were incubated under a humid, 5 % CO2 atmosphere at 37 °C. After five and twelve days, supernatant was taken and pictures were made using a Nikon SMZ18 stereo microscope (Nikon, Basel, Switzerland) at 7.5 × magnification. PGI activity in the supernatants was measured on a HIDEX Sense microplate reader (Hidex, Turku, Finland). The corresponding values of the DMSO controls were subtracted from the values of the compounds and then PGI activity was calculated relative to 0.1 % Triton X-100. […] IC50 values were calculated applying the 3 parameter Weibull type 1 in R for each of the three independent experiments ([Ritler et al., 2020]).

[2] = system: E. multilocularis metacestode vesicles; assay: Metacestode vesicle viability assay (ATP, CellTiter-Glo); format: cell-based, Echinococcus multilocularis; settings: 10 μM, 12 days
Procedure: Viability was assessed after 12 days using the same metacestode vesicles as for the PGI release assay. Triton X-100 was added to each well to a final concentration of 0.1 %. Subsequently the metacestode vesicles were broken mechanically and 50 μL of the supernatant was mixed with 50 μL of CellTiter-Glo® buffer (Promega, Dübendorf, Switzerland). Measurements were performed on a HIDEX Sense microplate reader.

[3] = overview screen, singlets, relative to 0.1 % Triton X-100, DMSO subtracted
[4] = overview screen, singlets, relative to DMSO control
[5] = confirmation screen, triplicates, mean

`CN(C)CCCNC(=O)c1ccc(-c2cc(O)c3ncccc3c2)cc1` [MMV1580488] was tested, and the “PGI d5 (relative PGI release)” value [1, 3] was -1.606%, the “PGI d12 (relative PGI release)” value [1, 3] was -1.51% and the “Viability d12 (relative viability)” value [2, 4] was 174.002%.

With `C[C@H](NC(=O)C(=O)Nc1ccccc1C(C)(C)C)C(=O)N[C@@H](CC(=O)O)C(=O)COc1c(F)c(F)cc(F)c1F` [MMV1580794] the “PGI d5 (relative PGI release)” value [1, 3] was -0.7921%, the “PGI d12 (relative PGI release)” value [1, 3] was -19.0747% and the “Viability d12 (relative viability)” value [2, 4] was 57.1149%.

For `CCCC1(C2CC2)c2cc(Cl)ccc2NC(=O)N1C` (stereo not drawn) [MMV1782113], the “PGI d5 (relative PGI release)” value [1, 3] was 0.2859%, the “PGI d12 (relative PGI release)” value [1, 3] was 0.236% and the “Viability d12 (relative viability)” value [2, 4] was 107.305%.

`COc1ccccc1NC(=O)c1ccccc1Sc1ccc([N+](=O)[O-])cc1` [MMV1580484] was tested, and the “PGI d5 (relative PGI release)” value [1, 3] was -0.1612%, the “PGI d12 (relative PGI release)” value [1, 3] was 8.961% and the “Viability d12 (relative viability)” value [2, 4] was 125.738%.

For `c1cnc(NCc2ccc(CNc3ncccn3)cc2)nc1` [MMV1580490], the “PGI d5 (relative PGI release)” value [1, 3] was 0.6457%, the “PGI d12 (relative PGI release)” value [1, 3] was 0.4288% and the “Viability d12 (relative viability)” value [2, 4] was 45.3723%.

With `O[C@@](Cn1cnnn1)(c1ccc(F)cc1F)C(F)(F)c1ccc(-c2ccc(OCC(F)(F)F)cc2)cn1` [MMV1634386] the “PGI d5 (relative PGI release)” value [1, 3] was -2.798%, the “PGI d12 (relative PGI release)” value [1, 3] was -27.2627% and the “Viability d12 (relative viability)” value [2, 4] was 107.711%.

`Cc1cc(CCCOc2c(C)cc(-c3noc(C(F)(F)F)n3)cc2C)on1` [MMV690467] was tested, and the “PGI d5 (relative PGI release)” value [1, 3] was 0.4162%, the “PGI d12 (relative PGI release)” value [1, 3] was 0.2856% and the “Viability d12 (relative viability)” value [2, 4] was 74.4224%.

In the case of `O=C(CSc1nnc(Br)n1-c1ccc(C2CC2)c2ccccc12)Nc1ccc(C(=O)O)cc1Cl` [MMV1782213], the “PGI d5 (relative PGI release)” value [1, 3] is reported as 1.533%, the “PGI d12 (relative PGI release)” value [1, 3] is reported as -0.7445% and the “Viability d12 (relative viability)” value [2, 4] is reported as 116.37%.

In the case of `O=C(Nc1ccc(Cl)c(C(F)(F)F)c1)C(CCCl)C(=O)Nc1ccc(Cl)c(C(F)(F)F)c1` [MMV1580840], the “PGI d5 (relative PGI release)” value [1, 5] is reported as -0.17%, the “PGI d12 (relative PGI release)” value [1, 5] is reported as 0.36% and the “PGI d5 (relative PGI release)” value [1, 3] is reported as 14.7528%. The “PGI d12 (relative PGI release)” value [1, 3] was 31.1069%, the “Viability d12 (relative viability)” value [2, 5] was 81.80% and the “Viability d12 (relative viability)” value [2, 4] was 11.8566%.

`Cc1c(F)cccc1NC(=O)Nc1ccc(Cl)c(S(=O)(=O)[C@H]2CCCNC2)c1O` [MMV1581034] was tested, and the “PGI d5 (relative PGI release)” value [1, 3] was 1.533%, the “PGI d12 (relative PGI release)” value [1, 3] was -0.4746% and the “Viability d12 (relative viability)” value [2, 4] was 88.9358%.

In the case of `O=C(c1ccc(F)cc1)N1CCN2C(=O)c3ccccc3C12c1ccccc1` (stereo not drawn) [MMV1165877], the “PGI d5 (relative PGI release)” value [1, 5] is reported as 0.55%, the “PGI d12 (relative PGI release)” value [1, 5] is reported as 0.41% and the “PGI d5 (relative PGI release)” value [1, 3] is reported as 6.429%. The “PGI d12 (relative PGI release)” value [1, 3] was 52.7291%, the “Viability d12 (relative viability)” value [2, 5] was 130.42% and the “Viability d12 (relative viability)” value [2, 4] was 23.1723%.

`CN(C)[C@@H]1C(=O)C(C(N)=O)=C(O)[C@@]2(O)C(=O)C3=C(O)c4c(O)c(NC(=O)CN5CCCC5)cc(F)c4C[C@H]3C[C@@H]12.Cl.Cl` [MMV1578574] was tested, and the “PGI d5 (relative PGI release)” value [1, 3] was -1.676%, the “PGI d12 (relative PGI release)” value [1, 3] was -12.2407% and the “Viability d12 (relative viability)” value [2, 4] was 18.1189%.

For `Cl.Cl.NCCCc1ccccc1C(=O)Nc1ncc([N+](=O)O)s1` [MMV1579786], the “PGI d5 (relative PGI release)” value [1, 3] was -0.3411%, the “PGI d12 (relative PGI release)” value [1, 3] was -16.376% and the “Viability d12 (relative viability)” value [2, 4] was 116.729%.

For `C[C@@H](NC(=O)c1cccc(-c2cnc(-c3cc4ccccc4cn3)[nH]2)c1)c1ccc(F)cc1` [MMV1782211], the “PGI d5 (relative PGI release)” value [1, 3] was 2.451%, the “PGI d12 (relative PGI release)” value [1, 3] was 6.1027% and the “Viability d12 (relative viability)” value [2, 4] was 82.804%.

For `COc1cc(NC(=O)CN2C(=O)NC(c3ccccc3)(c3ccccc3)C2=O)cc(OC)c1` [MMV1578572], the “PGI d5 (relative PGI release)” value [1, 3] was -1.463%, the “PGI d12 (relative PGI release)” value [1, 3] was -23.3736% and the “Viability d12 (relative viability)” value [2, 4] was 61.4538%.

`Cc1cccc(C)c1C(=O)Nc1nc(-c2ccccn2)cc2ccccc12` [MMV1581558] was tested, and the “PGI d5 (relative PGI release)” value [1, 3] was 1.519%, the “PGI d12 (relative PGI release)” value [1, 3] was 3.408% and the “Viability d12 (relative viability)” value [2, 4] was 99.5465%.

`NC1C2CC3CC(C2)CC1C3` (stereo not drawn) [MMV180402] was tested, and the “PGI d5 (relative PGI release)” value [1, 3] was -0.5217%, the “PGI d12 (relative PGI release)” value [1, 3] was -14.4779% and the “Viability d12 (relative viability)” value [2, 4] was 111.504%.

`CCCCCCCc1[nH]c2ccccc2c(=O)c1O` [MMV1578561] was tested, and the “PGI d5 (relative PGI release)” value [1, 3] was -1.205%, the “PGI d12 (relative PGI release)” value [1, 3] was -12.6441% and the “Viability d12 (relative viability)” value [2, 4] was 124.494%.

In the case of `CCc1nc(N)nc(N)c1C#CCc1ccccc1` [MMV1581549], the “PGI d5 (relative PGI release)” value [1, 3] is reported as -0.3014%, the “PGI d12 (relative PGI release)” value [1, 3] is reported as -5.576% and the “Viability d12 (relative viability)” value [2, 4] is reported as 82.8379%.

In the case of `O=c1oc2ccc(Br)cc2cc1CSc1ncc[nH]1` [MMV1782105], the “PGI d5 (relative PGI release)” value [1, 3] is reported as 1.562%, the “PGI d12 (relative PGI release)” value [1, 3] is reported as -17.9407% and the “Viability d12 (relative viability)” value [2, 4] is reported as 107.746%.

For `O=C(Nc1nnc(-c2ccc(Cl)cc2)o1)c1ccc(F)cc1` [MMV1782140], the “PGI d5 (relative PGI release)” value [1, 3] was -3.764%, the “PGI d12 (relative PGI release)” value [1, 3] was 9.726% and the “Viability d12 (relative viability)” value [2, 4] was 86.8653%.

For `CC(C)Oc1ccc(-n2cnc3cc(/C=C\c4ccc(C(C)(C)O)cc4)ccc32)cc1` [MMV1782350], the “PGI d5 (relative PGI release)” value [1, 3] was -0.1916%, the “PGI d12 (relative PGI release)” value [1, 3] was 0.3132% and the “Viability d12 (relative viability)” value [2, 4] was 72.1416%.

In the case of `COc1c(NC(=O)[C@H]2CC[C@@H](COc3ccc([N+](=O)[O-])cc3)CC2)c(F)cc2c(=O)c(C(=O)O)cn(C3CC3)c12` [MMV1633965], the “PGI d5 (relative PGI release)” value [1, 3] is reported as 0.7075%, the “PGI d12 (relative PGI release)” value [1, 3] is reported as -11.0947% and the “Viability d12 (relative viability)” value [2, 4] is reported as 49.6807%.

In the case of `CC(C)=CCC/C(C)=C\CNCCNC1C2CC3CC(C2)CC1C3` (stereo not drawn) [MMV687273], the “PGI d5 (relative PGI release)” value [1, 3] is reported as 0.6754%, the “PGI d12 (relative PGI release)” value [1, 3] is reported as -4.6575% and the “Viability d12 (relative viability)” value [2, 4] is reported as 47.5933%.

In the case of `OB1OCc2c1ccc(Cl)c2F` [MMV1782226], the “PGI d5 (relative PGI release)” value [1, 3] is reported as -2.405%, the “PGI d12 (relative PGI release)” value [1, 3] is reported as -26.1495% and the “Viability d12 (relative viability)” value [2, 4] is reported as 39.4941%.

In the case of `CN1c2ccc(Cl)cc2N(c2ccccc2)C(=O)c2cn(Cc3ccc(CN4CCOCC4)cc3)nc21` [MMV1782222], the “PGI d5 (relative PGI release)” value [1, 3] is reported as -0.005582%, the “PGI d12 (relative PGI release)” value [1, 3] is reported as 0.3517% and the “Viability d12 (relative viability)” value [2, 4] is reported as 123.597%.

For `Cc1cc(C)n2nc(C(=O)NS(=O)(=O)c3c(C)cccc3OC(F)(F)F)nc2n1` [MMV1782402], the “PGI d5 (relative PGI release)” value [1, 3] was -1.59%, the “PGI d12 (relative PGI release)” value [1, 3] was 1.998% and the “Viability d12 (relative viability)” value [2, 4] was 179.119%.

For `O=C1NC(=O)C(Br)=C1Br` [MMV1578554], the “PGI d5 (relative PGI release)” value [1, 3] was 3.162%, the “PGI d12 (relative PGI release)” value [1, 3] was 5.51% and the “Viability d12 (relative viability)” value [2, 4] was 135.147%.

For `C[C@@H](O)[C@H](N)C(=O)NS(=O)(=O)c1cccc(-c2ccc3[nH]ncc3c2)c1.Cl.Cl` [MMV1582494], the “PGI d5 (relative PGI release)” value [1, 3] was -2.197%, the “PGI d12 (relative PGI release)” value [1, 3] was -25.2892% and the “Viability d12 (relative viability)” value [2, 4] was 90.2603%.

In the case of `Nc1nc(O)c(Br)c(-c2cccc(Cl)c2)n1` [MMV1645152], the “PGI d5 (relative PGI release)” value [1, 3] is reported as -0.1718%, the “PGI d12 (relative PGI release)” value [1, 3] is reported as -17.4315% and the “Viability d12 (relative viability)” value [2, 4] is reported as 465.171%.

In the case of `CC(=O)Nc1cc(NS(=O)(=O)c2ccc(Cl)cc2)cc2c(Cl)n[nH]c12` [MMV1579779], the “PGI d5 (relative PGI release)” value [1, 3] is reported as 1.247%, the “PGI d12 (relative PGI release)” value [1, 3] is reported as 30.3469% and the “Viability d12 (relative viability)” value [2, 4] is reported as 88.2086%.

For `O=c1ccc2ncc(=O)n3c2n1CC3CN1CCC(NCc2cc3c(cn2)OCCC3)CC1` (stereo not drawn) [MMV1578568], the “PGI d5 (relative PGI release)” value [1, 3] was -2.295%, the “PGI d12 (relative PGI release)” value [1, 3] was -8.489% and the “Viability d12 (relative viability)” value [2, 4] was 53.1876%.
